Experimental data: PMC10362175, “Selenium-binding protein 1 (SELENBP1) is a copper-dependent thiol oxidase” (Redox Biology, 2023)

Key:
Type in all cases: biochemical
[1] = target: T1, methionine gamma-lyase (MGL) (Brevibacterium aurantiacum, UniProt A0A2H1K3G9); experiment: DTNB (Ellman's reagent) trapping of volatile thiol, […] nm; details: HBS, 3 h
T1 construct: gene BAUR9175_03070

[2] = target: T2, SELENBP1 (Homo sapiens, UniProt Q13228); experiment: coupled MGL assay, H2S (lead acetate paper) and H2O2 (fluorometric); details: Cu cofactor, HBS pH 7.4, 37 °C, 3 h
T2 construct: Strep-tagged recombinant, E. coli BL21 or KRX, Strep-Tactin XT purified, 56 kDa
T2 sequence (Q13228 2-472): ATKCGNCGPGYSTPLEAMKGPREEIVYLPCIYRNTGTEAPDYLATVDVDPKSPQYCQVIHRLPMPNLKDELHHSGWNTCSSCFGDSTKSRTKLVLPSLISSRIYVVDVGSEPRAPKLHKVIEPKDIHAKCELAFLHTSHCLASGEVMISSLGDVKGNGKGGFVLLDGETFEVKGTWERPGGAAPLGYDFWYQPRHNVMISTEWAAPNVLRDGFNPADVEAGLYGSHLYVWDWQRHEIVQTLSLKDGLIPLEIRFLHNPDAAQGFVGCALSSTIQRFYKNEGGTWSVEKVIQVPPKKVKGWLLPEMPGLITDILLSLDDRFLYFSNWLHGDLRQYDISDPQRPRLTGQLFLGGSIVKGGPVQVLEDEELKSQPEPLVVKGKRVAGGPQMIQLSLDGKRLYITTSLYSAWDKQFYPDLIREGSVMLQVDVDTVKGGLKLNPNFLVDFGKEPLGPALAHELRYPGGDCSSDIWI

[3] = target: T3, SEMO-1 (Caenorhabditis elegans, UniProt Q9XXF9); experiment: as above; details: Cu cofactor; methanethiol generated in situ from L-methionine; HBS pH 7.4; 37 °C, 3 h
T3 construct: Strep-tagged recombinant, E. coli BL21 or KRX, Strep-Tactin XT purified
T3 sequence (Q9XXF9 entry or part of it): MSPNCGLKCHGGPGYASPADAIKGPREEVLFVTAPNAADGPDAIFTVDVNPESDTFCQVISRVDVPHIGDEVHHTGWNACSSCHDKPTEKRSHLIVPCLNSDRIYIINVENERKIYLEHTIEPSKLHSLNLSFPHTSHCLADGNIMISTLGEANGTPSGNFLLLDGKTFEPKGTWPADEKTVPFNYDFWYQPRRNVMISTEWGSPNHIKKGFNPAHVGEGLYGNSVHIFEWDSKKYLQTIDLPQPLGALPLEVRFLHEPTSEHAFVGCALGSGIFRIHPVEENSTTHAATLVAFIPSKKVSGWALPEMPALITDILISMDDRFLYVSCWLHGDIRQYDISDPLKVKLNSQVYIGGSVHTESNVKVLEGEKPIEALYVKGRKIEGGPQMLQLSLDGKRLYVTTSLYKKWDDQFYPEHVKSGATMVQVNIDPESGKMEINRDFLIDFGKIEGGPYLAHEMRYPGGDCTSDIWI

T1 sequence (A0A2H1K3G9 14-406 limits assumed): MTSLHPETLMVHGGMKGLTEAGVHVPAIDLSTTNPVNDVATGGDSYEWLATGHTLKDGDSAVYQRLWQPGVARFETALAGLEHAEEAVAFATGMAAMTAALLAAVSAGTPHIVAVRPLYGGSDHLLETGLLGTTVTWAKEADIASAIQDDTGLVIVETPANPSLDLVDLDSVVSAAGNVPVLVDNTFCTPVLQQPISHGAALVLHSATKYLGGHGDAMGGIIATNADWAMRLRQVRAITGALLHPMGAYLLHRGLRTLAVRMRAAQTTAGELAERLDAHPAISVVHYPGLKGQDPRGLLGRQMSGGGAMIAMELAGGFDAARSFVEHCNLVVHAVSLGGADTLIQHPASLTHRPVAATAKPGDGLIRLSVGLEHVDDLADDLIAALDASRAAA

Compound: N[C@@H](CCS)C(=O)O [L-homocysteine]
- DTNB (Ellman's reagent) trapping of volatile thiol, 412 nm ([1]; product H2S): ethanethiol, methaneselenol and H2S were generated by MGL-mediated elimination from their precursor amino acids

Compound: CSCC[C@H](N)C(=O)O [L-methionine]
- DTNB (Ellman's reagent) trapping of volatile thiol, 412 nm ([1]; product methanethiol): MGL-mediated generation of methanethiol from methionine served as positive control

Compound: CCS [ethanethiol]
- coupled MGL assay, H2S (lead acetate paper) and H2O2 (fluorometric) ([2]; ethanethiol generated in situ from DL-ethionine): methanethiol and ethanethiol are by far the best SELENBP1 substrates

Compound: CS [methanethiol]
- coupled MGL assay, H2S (lead acetate paper) and H2O2 (fluorometric) ([2]; methanethiol generated in situ from L-methionine): methanethiol and ethanethiol are by far the best SELENBP1 substrates
- coupled MGL assay, H2S (lead acetate paper) and H2O2 (fluorometric) [3]: only the addition of cupric ions was capable of regenerating and even enhancing MTO activity
